Results reported in US10702498B2 (priority 2015, dated 2020).
Like-named read-outs stand apart in the source and are kept apart here.

Key:
μOR = μOR (Homo sapiens (Human), UniProt P35372); assay: cell-based; format: cell-based
[1] = target: μOR β-arrestin2 recruitment (Homo sapiens (Human), UniProt P35372); assay: β-Arrestin2 recruitment without GRK2 co-expression (BRET); format: cell-based
[2] = target: human μOR β-arrestin2 recruitment + GRK2 (Homo sapiens (Human), UniProt P35372); assay: β-Arrestin2 recruitment with GRK2 co-expression (BRET); format: cell-based; settings: GRK2 co-expressed
humanDOR = humanDOR (Homo sapiens (Human), UniProt P41143); assay: Receptor binding, [3H]diprenorphine
hKOR = hKOR (Homo sapiens (Human), UniProt P41145); assay: Receptor binding, [3H]diprenorphine
MOR = MOR (Homo sapiens (Human), UniProt P35372); assay: Receptor binding, [3H]diprenorphine
[3] = read-out: binding affinity Ki [nM] hDOR

Sequence of hKOR (P41145 whole entry): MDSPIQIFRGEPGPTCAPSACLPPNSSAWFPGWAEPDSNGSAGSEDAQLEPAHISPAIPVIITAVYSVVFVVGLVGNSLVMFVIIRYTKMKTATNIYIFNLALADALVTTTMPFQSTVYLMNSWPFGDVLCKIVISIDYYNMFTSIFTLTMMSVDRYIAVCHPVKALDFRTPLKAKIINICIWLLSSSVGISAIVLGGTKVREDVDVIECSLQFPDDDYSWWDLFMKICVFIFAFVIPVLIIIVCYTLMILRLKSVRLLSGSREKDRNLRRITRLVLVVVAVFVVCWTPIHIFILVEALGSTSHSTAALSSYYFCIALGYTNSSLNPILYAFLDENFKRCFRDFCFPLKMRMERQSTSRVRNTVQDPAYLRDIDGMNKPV
Sequence of humanDOR (P41143 whole entry): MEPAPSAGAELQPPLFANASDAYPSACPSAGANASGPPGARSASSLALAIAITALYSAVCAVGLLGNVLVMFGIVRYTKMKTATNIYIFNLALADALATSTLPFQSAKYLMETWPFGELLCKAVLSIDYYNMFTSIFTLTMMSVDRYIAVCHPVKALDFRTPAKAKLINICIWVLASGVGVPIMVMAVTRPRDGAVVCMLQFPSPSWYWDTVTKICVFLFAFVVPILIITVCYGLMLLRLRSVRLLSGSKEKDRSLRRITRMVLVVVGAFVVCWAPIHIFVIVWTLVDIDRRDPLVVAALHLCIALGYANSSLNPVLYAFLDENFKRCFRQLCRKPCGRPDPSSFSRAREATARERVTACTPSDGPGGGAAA
Sequence of MOR (P35372 whole entry): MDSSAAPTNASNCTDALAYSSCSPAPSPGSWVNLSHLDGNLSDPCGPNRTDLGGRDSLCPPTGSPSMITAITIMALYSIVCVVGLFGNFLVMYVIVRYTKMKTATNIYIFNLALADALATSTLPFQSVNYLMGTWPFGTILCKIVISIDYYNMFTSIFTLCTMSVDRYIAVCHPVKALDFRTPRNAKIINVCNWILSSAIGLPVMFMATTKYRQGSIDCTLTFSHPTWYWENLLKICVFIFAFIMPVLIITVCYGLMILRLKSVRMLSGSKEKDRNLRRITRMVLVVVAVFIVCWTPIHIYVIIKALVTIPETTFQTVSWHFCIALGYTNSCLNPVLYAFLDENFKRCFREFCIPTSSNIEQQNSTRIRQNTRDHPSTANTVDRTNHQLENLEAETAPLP

SMILES | Gi/o pEC50 (μOR) | Arrestin pEC50 [1] | Arrestin + GRK2 pEC50 [2] | Ki (humanDOR) | further results
CN(C)[C@H](CNC(=O)NC(C)(C)Cc1ccsc1)Cc1ccc(O)cc1 [DD 32L, (S)-1-(2-(dimethylamino)-3-(4-hydroxyphenyl)propyl)-3-(2-methyl-1-(thiophen-3-yl)propan-2-yl)urea] | 7.629 | 8.282 | 7.306 |  | 
CN(CC1CC1)[C@H](CNC(=O)NCCc1ccccc1)Cc1ccc(O)cc1 [DD 184] | 6.253 |  |  |  | 
CN(CCc1ccccc1)C(=O)NC[C@H](Cc1ccc(O)cc1)N(C)C [DD 102] | 7.421 | 5.703 | 5.824 |  | 
C[C@@H](Cc1ccsc1)NC(=O)NC[C@H](Cc1ccc(O)cc1)N(C)Cc1ccccc1 [DD187, 1-((S)-2-(benzyl(methyl)amino)-3-(4-hydroxyphenyl)propyl)-3-((S)-1-(thiophen-3-yl)propan-2-yl)urea] |  |  |  | 720 nM | Ki (hKOR): 210 nM; Ki (MOR): 220 nM
CN(C)[C@H](CNC(=O)NCCc1cn(Cc2ccccc2)nn1)Cc1ccc(O)cc1 [DD 154, (S)-1-(2-(1-benzyl-1H-1,2,3-triazol-4-yl)ethyl)-3-(2-(dimethylamino)-3-(4-hydroxyphenyl)propyl)urea] |  |  |  | 580 nM | 
COc1cccc(CCNC(=O)NC[C@H](Cc2ccc(O)cc2)N(C)C)c1 [DD200, (S)-1-(2-(dimethylamino)-3-(4-hydroxyphenyl)propyl)-3-(3-methoxyphenethyl)urea] |  |  |  | 220 nM | Ki (hKOR): 1300 nM; Ki (MOR): 110 nM
CN(C)[C@H](CNC(=O)NCCc1cn(CCOCCOCCN=[N+]=[N-])nn1)Cc1ccc(O)cc1 [DD 161, (S)-1-(2-(1-(2-(2-(2-azidoethoxy)ethoxy)ethyl)-1H-1,2,3-triazol-4-yl)ethyl)-3-(2-(dimethylamino)-3-(4-hydroxyphenyl)propyl)urea] |  |  |  | 3000 nM | Ki (hKOR): 1200 nM
CN(C)[C@H](CNC(=O)NCCc1ccccc1)Cc1ccc(O)cc1 [DD 90] | 8.371 | 7.272 | 6.841 |  | 
CN(C)[C@H](CNC(=S)NCCc1ccsc1)Cc1ccc(O)cc1 [DD 81, (S)-1-(2-(dimethylamino)-3-(4-hydroxyphenyl)propyl)-3-(2-(thiophen-3-yl)ethyl)thiourea] | 7.821 | 7.604 | 7.173 |  | 
C[C@@H](Cc1csc2ccccc12)NC(=O)NC[C@H](Cc1ccc(O)cc1)N(C)C [DD 63L-LB] | 8.244 | 6.401 | 7.086 |  | 
CN(C)[C@H](CNC(=O)NCCc1ccccc1F)Cc1ccc(O)cc1 [DDLM-08, (S)-1-(2-(dimethylamino)-3-(4-hydroxyphenyl)propyl)-3-(2-fluorophenethyl)urea] |  |  |  | 53 nM | Ki (hKOR; binding affinity Ki [nM] hKOR): 440 nM; Ki (MOR; binding affinity Ki [nM] hMOR): 43 nM
CN(C)[C@H](CNC(=O)NCCc1cn(CCOCCOCCOCCN=[N+]=[N-])nn1)Cc1ccc(O)cc1 [DD 165, (S)-1-(2-(1-(2-(2-(2-(2-azidoethoxy)ethoxy)ethoxy)ethyl)-1H-1,2,3-triazol-4-yl)ethyl)-3-(2-(dimethylamino)-3-(4-hydroxyphenyl)propyl)urea] |  |  |  | 3900 nM | Ki (hKOR; binding affinity Ki [nM] hKOR): 2900 nM
C[C@H](NC(=O)NC[C@H](Cc1ccc(O)cc1)N(C)C)c1ccccc1 [DD 53LS, 1-((S)-2-(dimethylamino)-3-(4-hydroxyphenyl)propyl)-3-((S)-1-phenylethyl)urea] | 8.512 | 7.168 | 7.059 |  | 
CC(Cc1csc2ccccc12)NC(=O)NC[C@H](Cc1ccc(O)cc1)N(C)C (mixture of isomers) [DD 63L-RS] |  |  |  | 44 ± 1.4 nM | Ki (humanDOR; [3]): 44 nM; Ki (hKOR; binding affinity Ki [nM] hKOR): 19 nM; Ki (hKOR; hKOR [3H]dyprenorphine Ki): 14 ± 0.71 nM; Ki (MOR; binding affinity Ki [nM] hMOR): 14 nM; Ki (MOR; hMOR [3H]dyprenorphine Ki): 16 ± 1.4 nM
C[C@@H](Cc1ccsc1)NC(=O)NC[C@H](Cc1ccc(O)c(CO)c1)N(C)C [DD 131, 1-((S)-2-(dimethylamino)-3-(4-hydroxy-3-(hydroxymethyl)phenyl)propyl)-3-((S)-1-(thiophen-3-yl)propan-2-yl)urea] | 8.1 | 6.639 | 6.671 |  | 
C[C@H](Cc1ccsc1)NC(=O)NC[C@H](Cc1ccccc1)N(C)C (stereo in doubt) [BD 127LR] |  |  |  | 1800 ± 150 nM | Ki (humanDOR; [3]): 1800 nM; Ki (hKOR; binding affinity Ki [nM] hKOR): 1300 nM; Ki (hKOR; hKOR [3H]dyprenorphine Ki): 1300 ± 300 nM
C[C@@H](Cc1ccccc1)NC(=O)NC[C@H](Cc1ccc(O)cc1)N(C)C [DD 61L-B, 1-((S)-2-(dimethylamino)-3-(4-hydroxyphenyl)propyl)-3-((S)-1-phenylpropan-2-yl)urea] | 7.45 | 7.075 | 6.556 |  | 
C=CCN(CC(Cc1ccccc1)N(C)C)C(=O)N[C@H](C)Cc1ccsc1 (stereo partly shown) [DD 93B] |  |  |  |  | Ki (humanDOR; [3]): ~15000 nM
CN(C)[C@H](CNC(=O)NCCCN1C(=O)C=CC1=O)Cc1ccc(O)cc1 [DD 138, (S)-1-(2-(dimethylamino)-3-(4-hydroxyphenyl)propyl)-3-(3-(2,5-dioxo-2,5-dihydro-1H-pyrrol-1-yl)propyl)urea] |  |  |  |  | Ki (MOR; binding affinity Ki [nM] hMOR): 580 nM
C[C@@H](Cc1ccsc1)NC(=O)NC[C@H](Cc1cccc(O)c1)N(C)C [DD 47LS, 1-((S)-2-(dimethylamino)-3-(3-hydroxyphenyl)propyl)-3-((S)-1-(thiophen-3-yl)propan-2-yl)urea] | 7.77 | 6.447 | 6.676 |  | 
C[C@H](Cc1ccsc1)NC(=O)NC[C@H](Cc1ccc(O)cc1)N(C)C [(S,R)-21, 1-[(S)-2-(Dimethylamino)-3-(4-hydroxyphenyl)propyl]-3-((R)-1-(thiophen-3-yl)propan-2-yl)urea] |  |  |  |  | Gi/o activation / μOR agonist activity (μOR): more potent partial agonist of the μOR as compared to (S,S)-21
CN(C)[C@H](CNC(=O)NC(C)(C)Cc1ccccc1)Cc1ccc(O)cc1 [DD 33L, (S)-1-(2-(dimethylamino)-3-(4-hydroxyphenyl)propyl)-3-(2-methyl-1-phenylpropan-2-yl)urea] | 7.008 |  | 6.874 |  | 
CN(C[C@H](Cc1ccc(O)cc1)N(C)C)C(=O)NCCc1ccccc1 [DD 108] | 7.455 | 5.327 | 5.826 |  | 
C[C@@H](Cc1ccsc1)NC(=O)NC[C@H](Cc1ccccc1)N(C)C [(S,S)-12, 1-[(S)-2-(Dimethylamino)-3-phenylpropyl]-3-[(S)-1-(thiophen-3-yl)propan-2-yl]urea] |  |  |  |  | Gi/o activation / μOR agonist activity (μOR): most potent and efficacious Gi/o signaling agonist among the four isomers
C=CCN(CC(Cc1ccccc1)N(C)C)C(=O)N[C@@H](C)Cc1ccsc1 (stereo partly shown) [DD 93A] |  |  |  |  | Ki (humanDOR; [3]): ~15000 nM
CN(C)[C@H](CNC(=O)NCCc1cn(CCOCCOCCOCCOCCOCCNC(=O)CCCC[C@@H]2SC[C@@H]3NC(=O)N[C@@H]32)nn1)Cc1ccc(O)cc1 [DD 170, N-(17-(4-(2-(3-((S)-2-(dimethylamino)-3-(4-hydroxyphenyl)propyl)ureido)ethyl)-1H-1,2,3-triazol-1-yl)-3,6,9,12,15-pentaoxaheptadecyl)-5-((3aS,4S,6aR)-2-oxohexahydro-1H-thieno[3,4-d]imidazol-4-yl)pentanamide] |  |  |  |  | Ki (MOR; read-out: binding affinity Ki [nM] hMOR): 13000 nM
CN(CCCl)[C@H](CNC(=O)NCCc1ccccc1)Cc1ccc(O)cc1 [DD185, (S)-1-(2-((2-chloroethyl)(methyl)amino)-3-(4-hydroxyphenyl)propyl)-3-phenethylurea] |  |  |  | 360 nM | 
